Test results reported in patent publication US20250109139A1, “TRICYCLIC COMPOUND, AND PREPARATION METHOD THEREFOR AND USE THEREOF” (SHANGHAITECH UNIVERSITY, priority 2022, published 2025).
Where two headings read alike, the source gives them in different places.

Experiments:
[1] = biological target: dopamine D2 receptors (Homo sapiens (Human), UniProt P14416); experiment: Dopamine D2 receptor radioligand competition binding assay ([3H]-Methylspiperone); settings: [3H]-Methylspiperone 0.3 to 0.5 nM, 293T membranes
Summary of the method: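 Membranes from cells transfected with human D2 receptor, PEI-mediated; competition with [3H]-methylspiperone for 2 h at room temperature in the dark.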

[2] = biological target: 5-HT2A receptors (Homo sapiens (Human), UniProt P28223); experiment: 5-HT2A receptor radioligand competition binding assay ([3H]-ketanserin); settings: for Ki: read-out: Ki
Protocol: The affinity of the compounds of the present disclosure for 5-HT2A receptors was determined by a radioligand competition binding assay. In the first step, a cell membrane component containing specific 5-HT2A receptor was prepared. A 10 cm dish was used for transfection with […] of 5-HT2A receptors and 40 μL of PEI. After 48 hours, the 10 cm dish was taken out from the cell incubator and the cultured cells had expressed the 5-HT2A receptors. A vacuum pump was used to suck off the culture medium, 3 mL of lysis buffer was added to each culture dish, and the cells were placed in a 4° C. cold room for 10 minutes. After the cells were detached, the cells were transferred to a 15 mL centrifuge tube and centrifuged at 1500 rpm for 5 minutes at 4° C., and the supernatant was discarded. The cell pellet was transferred to a tissue homogenizer, and 3 mL of lysis buffer was added and fully ground until the cells were broken. Then, cell suspension was equally aliquoted into several EP tubes, centrifuged at 12000 rpm for 5 minutes at 4° C., and the supernatant was discarded. The precipitate was the cell membrane component containing the 5-HT2A receptors. […] First, a standard binding buffer was added to the cell membrane component containing the 5-HT2A receptors, and the cell membrane was disrupted and resuspended with an electric tissue homogenizer. 30 μL of membrane protein suspension was added to each well of a 96-well plate. Then, 30 μL of different drugs were added to the 96-well plate sequentially from bottom to top to ensure that the final drug concentrations were 10^−5 M, 10^−6 M, 10^−7 M, 10^−8 M, 10^−9 M, and 0 M, with two replicates per treatment. Next, 30 μL of [^3H]-ketanserin was added to each well of the 96-well plate. The plate was incubated at room temperature in the dark for 2 hours. Detection was conducted. The machine readout value reflected the amount of [^3H]-ketanserin bound on the membrane, and after further data processing, the affinity Ki values of different compounds for the 5-HT2A receptors were obtained.

[3] = [3H]-ketanserin, 293T membranes
[4] = read-out: Affinity pKi ± SEM (converted)

Sequence of dopamine D2 receptors (P14416 whole entry): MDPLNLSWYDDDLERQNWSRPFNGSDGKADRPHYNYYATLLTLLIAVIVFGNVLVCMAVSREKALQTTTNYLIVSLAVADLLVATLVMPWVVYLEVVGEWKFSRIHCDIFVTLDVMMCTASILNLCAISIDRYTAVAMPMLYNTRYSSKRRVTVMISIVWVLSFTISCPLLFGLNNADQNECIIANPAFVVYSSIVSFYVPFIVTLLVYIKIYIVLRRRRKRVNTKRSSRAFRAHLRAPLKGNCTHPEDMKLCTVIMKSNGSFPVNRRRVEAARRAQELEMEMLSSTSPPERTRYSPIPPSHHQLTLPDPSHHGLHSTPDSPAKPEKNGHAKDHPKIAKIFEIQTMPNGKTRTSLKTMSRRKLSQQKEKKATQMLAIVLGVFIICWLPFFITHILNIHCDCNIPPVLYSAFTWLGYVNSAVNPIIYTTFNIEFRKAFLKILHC
Sequence of 5-HT2A receptors (P28223 whole entry): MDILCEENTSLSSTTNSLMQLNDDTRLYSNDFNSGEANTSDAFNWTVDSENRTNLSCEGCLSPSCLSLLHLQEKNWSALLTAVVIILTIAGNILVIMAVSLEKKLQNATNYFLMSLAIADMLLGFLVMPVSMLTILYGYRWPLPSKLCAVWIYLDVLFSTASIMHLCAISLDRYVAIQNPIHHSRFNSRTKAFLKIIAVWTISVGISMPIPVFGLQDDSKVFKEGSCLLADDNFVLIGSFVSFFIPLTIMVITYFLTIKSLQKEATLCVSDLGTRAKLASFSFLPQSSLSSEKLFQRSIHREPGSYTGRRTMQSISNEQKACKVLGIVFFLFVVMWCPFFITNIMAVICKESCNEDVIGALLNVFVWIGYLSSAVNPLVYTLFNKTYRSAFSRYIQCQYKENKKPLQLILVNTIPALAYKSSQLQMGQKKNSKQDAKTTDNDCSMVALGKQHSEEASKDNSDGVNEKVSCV

Compound | Affinity pKi ± SEM [1] | Ki ([1]; read-out: Affinity Ki) | affinity for 5-HT2A receptors (in words) [2] | pKi ± SEM [2, 3] | Ki [2, 3] | Ki [1, 4]
COc1cccc2c3c(oc12)CN(CCCCOc1ccc2ccc(=O)[nH]c2c1)CC3 [I-A1, 7-(4-(8-methoxy-3,4-dihydrobenzofuro[2,3-c]pyridin-2(1H)-yl)butoxy)quinolin-2(1H)-one] | (7.07 ± 0.02) | 0.0844 µM | very weak affinity | (5.74 ± 0.03) | 1.79 µM | 
COc1cccc2c3c(oc12)CN(CC[C@H]1CC[C@H](NC(=O)N(C)C)CC1)CC3 [I-A12, 3-(trans-4-(2-(8-methoxy-3,4-dihydrobenzofuro[2,3-c]pyridin-2(1H)-yl)ethyl)cyclohexyl)-1,1-dimethylurea] |  | 0.436 µM |  |  |  | 0.372 µM
COc1cccc2c3c([nH]c12)CN(CC[C@H]1CC[C@H](NC(=O)N(C)C)CC1)CC3 [I-B7, 3-(trans-4-(2-(8-methoxy-1,3,4,9-tetrahydro-2H-pyrido[3,4-b]indol-2-yl)ethyl)cyclohexyl)-1,1-dimethylurea] |  | 0.00271 µM | very weak affinity |  | 3.51 µM | 0.00182 µM
COc1cccc2c1cc1n2CCN(CCCCOc2ccc3ccc(=O)[nH]c3c2)C1 [I-C1, 7-(4-(9-methoxy-3,4-dihydropyrazino[1,2-a]indol-2(1H)-yl)butoxy)quinolin-2(1H)-one] |  | 0.401 µM |  |  |  | 0.269 µM
COc1cccc2c1cc1n2CCN(CCCCOc2ccc3c(c2)NC(=O)CC3)C1 [I-C2, 7-(4-(9-methoxy-3,4-dihydropyrazino[1,2-a]indol-2(1H)-yl)butoxy)-3,4-dihydroquinolin-2(1H)-one] |  | 0.221 µM |  |  |  | 0.0617 µM
